According to ChEMBL document CHEMBL1255402, “Staphylococcal cassette chromosome mec-like element in Macrococcus caseolyticus” (2010):
≈ marks a conversion by molar mass, not a printed value.

Experiments:
Type in all cases: functional
Settings in all cases: Macrococcoides caseolyticum
Macrococcus caseolyticus [1] = test: Antimicrobial activity against Macrococcus caseolyticus ATCC 51834 by agar dilution method
Macrococcus caseolyticus [2] = test: Antimicrobial activity against Macrococcus caseolyticus ATCC 51835 by agar dilution method
Macrococcus caseolyticus [3] = test: Antimicrobial activity against Macrococcus caseolyticus ATCC 13548T by agar dilution method
Macrococcus caseolyticus [4] = test: Antimicrobial activity against multidrug-resistant Macrococcus caseolyticus JCSC7096 containing plasmid pMCCL2 which carries transposon containing (mecA(m)-mecR1(m)-mecI(m)-blaZ(m)) complex isolated from chicken by agar dilution method
Macrococcus caseolyticus [5] = test: Antimicrobial activity against multidrug-resistant Macrococcus caseolyticus JCSC5402 containing plasmid pMCCL2 which carries transposon containing (mecA(m)-mecR1(m)-mecI(m)-blaZ(m)) complex isolated from chicken by agar dilution method
Macrococcus caseolyticus [6] = test: Antimicrobial activity against Macrococcus caseolyticus ATCC 29750 by agar dilution method
Macrococcus caseolyticus [7] = test: Antimicrobial activity against multidrug-resistant Macrococcus caseolyticus JCSC7528 containing plasmid pMCCL2 which carries transposon containing (mecA(m)-mecR1(m)-mecI(m)-blaZ(m)) complex isolated from chicken by agar dilution method

Compound: Cc1onc(-c2ccccc2)c1C(=O)N[C@@H]1C(=O)N2[C@@H]1SC(C)(C)[C@@H]2C(=O)O [OXACILLIN]
- MIC (Macrococcus caseolyticus [1]): 0.125 mg/L (≈ 0.311 µM)
- MIC (Macrococcus caseolyticus [2]): 0.25 mg/L (≈ 0.623 µM)
- MIC (Macrococcus caseolyticus [3]): 0.125 mg/L (≈ 0.311 µM)
- MIC (Macrococcus caseolyticus [4]): 64 mg/L (≈ 159 µM)
- MIC (Macrococcus caseolyticus [5]): 128 mg/L (≈ 319 µM)
- MIC (Macrococcus caseolyticus [6]): 0.125 mg/L (≈ 0.311 µM)
- MIC (Macrococcus caseolyticus [7]): 32 mg/L (≈ 79.7 µM)
